One compound from patent US10584127B2, “3,3-difluoropiperidine carbamate heterocyclic compounds as NR2B NMDA receptor antagonists” (Rugen Holdings (Cayman) Limited, priority 2015, dated 2020) can be followed below.

Molecules are shown by their SMILES.

One data set concerns the target cloned human NR1/NR2A (Homo sapiens (Human), UniProt Q12879). Kind of data set: NR2A antagonist activity, Fluo-4 calcium influx in HEK293 cells. To be noted: glutamate 100 μM, glycine 50 μM. It is filed as cell-based.
In data set [1] the test system is NMDA receptor (all subtypes), native rat brain receptors. The data set can be described thus: [3H] MK-801 radioligand binding assay, rat brain membranes. To be noted: 2 nM [3H] MK-801, rat brain membranes. As to the method: This example describes NMDA receptor binding assays using two different radioligands, [^3H] […] An established binding assay using the non-selective NMDA receptor ligand [^3H] […] The binding assay method using the NR2B selective receptor ligand [^3H] […] This assay serves as a selective measure of NR2B receptor binding activity in native rat brain receptors. Briefly, the brains of Male Wistar rats were homogenized (Polytron) before centrifugation at 40,000×g for 15 minutes at 4° C. After 2 washes, the final pellet was homogenized and stored at −80° C. The protein concentration was determined by Bradford assay.
Test compounds were solubilized at 10 mM in DMSO. Then the dilutions were performed with a constant solvent concentration (1% DMSO) in the assay.
After incubation for 4.5 h at room temperature, the assays were filtered on GF/B filters pretreated with 0.3% (v/v) PEI with a Brandel system for [^3H] […] The experiment was performed in duplicate (n=2).

The target of a further data set is CYP2D6 (Homo sapiens (Human), UniProt P10635). The data set can be described thus: CYP P450 enzyme inhibition, pooled human liver microsome. The class given is in vitro ADME. To be noted: HLM, dextromethorphan 5 μM. A general note: Liver microsomes are a subcellular fraction often used to study metabolism.
In data set [2] the test system is pentylenetetrazole-induced convulsions. The data set can be described thus: Pentylenetetrazole (PTZ) Seizure Test. It is filed as in vivo, rats. To be noted: 10 mg/kg p.o., mesylate salt, PTZ 100 mg/kg s.c. The protocol:
Rats, placed in individual macrolon cages (25×19×13 cm), were injected with pentylenetetrazole (PTZ) (100 mg/kg s.c.). The occurrence and latency of clonic and tonic convulsions and death were noted over a 30 minute period. 15 rats were studied per group. The test was performed blind.
Test compound E1-8.2 was administered as the free base.
Compounds were evaluated typically using 0.5% dimethylsulfoxide, 4% hydroxypropyl-b-cyclodextrin water as a vehicle at 1 or more doses (e.g., 1, 3 and 10 mg/kg), administered p.o. 30 minutes before PTZ, and compared with a vehicle control group. Diazepam (16 mg/kg p.o.), administered 60 minutes before PTZ, was used as reference substance. The experiment was performed over 2 separate sub-experiments with N=7 to 8 animals per group and per sub-experiment. Quantitative data (latencies) with the test substance was analyzed by comparing treated groups with vehicle control using Kruskal-Wallis test followed by Mann-Whitney U test. Quantitative data with the reference substance was analyzed using Mann-Whitney U test. Quantal data (frequencies) was analyzed by comparing treated groups with vehicle control using Fisher's Exact Probability tests (*=p<0.05; **=p<0.01; ***=p<0.001).

For orientation: IC50 means the concentration needed to halve the response being measured.

CYP2D6, sequence (P10635 whole entry): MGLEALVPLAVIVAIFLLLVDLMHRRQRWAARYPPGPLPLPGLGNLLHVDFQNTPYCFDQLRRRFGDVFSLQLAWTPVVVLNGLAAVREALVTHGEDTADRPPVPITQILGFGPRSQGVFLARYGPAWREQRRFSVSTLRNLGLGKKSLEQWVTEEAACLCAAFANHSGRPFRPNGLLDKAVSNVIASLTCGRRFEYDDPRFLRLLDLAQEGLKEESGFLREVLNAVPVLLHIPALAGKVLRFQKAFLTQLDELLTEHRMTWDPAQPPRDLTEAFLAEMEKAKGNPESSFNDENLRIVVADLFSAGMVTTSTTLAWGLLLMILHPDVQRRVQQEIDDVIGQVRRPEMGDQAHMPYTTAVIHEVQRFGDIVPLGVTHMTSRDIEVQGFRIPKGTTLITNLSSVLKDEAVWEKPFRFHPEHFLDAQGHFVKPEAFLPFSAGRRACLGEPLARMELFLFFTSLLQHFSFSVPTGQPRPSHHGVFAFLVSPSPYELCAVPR
cloned human NR1/NR2A, sequence (Q12879 23-1464, other chains not shown): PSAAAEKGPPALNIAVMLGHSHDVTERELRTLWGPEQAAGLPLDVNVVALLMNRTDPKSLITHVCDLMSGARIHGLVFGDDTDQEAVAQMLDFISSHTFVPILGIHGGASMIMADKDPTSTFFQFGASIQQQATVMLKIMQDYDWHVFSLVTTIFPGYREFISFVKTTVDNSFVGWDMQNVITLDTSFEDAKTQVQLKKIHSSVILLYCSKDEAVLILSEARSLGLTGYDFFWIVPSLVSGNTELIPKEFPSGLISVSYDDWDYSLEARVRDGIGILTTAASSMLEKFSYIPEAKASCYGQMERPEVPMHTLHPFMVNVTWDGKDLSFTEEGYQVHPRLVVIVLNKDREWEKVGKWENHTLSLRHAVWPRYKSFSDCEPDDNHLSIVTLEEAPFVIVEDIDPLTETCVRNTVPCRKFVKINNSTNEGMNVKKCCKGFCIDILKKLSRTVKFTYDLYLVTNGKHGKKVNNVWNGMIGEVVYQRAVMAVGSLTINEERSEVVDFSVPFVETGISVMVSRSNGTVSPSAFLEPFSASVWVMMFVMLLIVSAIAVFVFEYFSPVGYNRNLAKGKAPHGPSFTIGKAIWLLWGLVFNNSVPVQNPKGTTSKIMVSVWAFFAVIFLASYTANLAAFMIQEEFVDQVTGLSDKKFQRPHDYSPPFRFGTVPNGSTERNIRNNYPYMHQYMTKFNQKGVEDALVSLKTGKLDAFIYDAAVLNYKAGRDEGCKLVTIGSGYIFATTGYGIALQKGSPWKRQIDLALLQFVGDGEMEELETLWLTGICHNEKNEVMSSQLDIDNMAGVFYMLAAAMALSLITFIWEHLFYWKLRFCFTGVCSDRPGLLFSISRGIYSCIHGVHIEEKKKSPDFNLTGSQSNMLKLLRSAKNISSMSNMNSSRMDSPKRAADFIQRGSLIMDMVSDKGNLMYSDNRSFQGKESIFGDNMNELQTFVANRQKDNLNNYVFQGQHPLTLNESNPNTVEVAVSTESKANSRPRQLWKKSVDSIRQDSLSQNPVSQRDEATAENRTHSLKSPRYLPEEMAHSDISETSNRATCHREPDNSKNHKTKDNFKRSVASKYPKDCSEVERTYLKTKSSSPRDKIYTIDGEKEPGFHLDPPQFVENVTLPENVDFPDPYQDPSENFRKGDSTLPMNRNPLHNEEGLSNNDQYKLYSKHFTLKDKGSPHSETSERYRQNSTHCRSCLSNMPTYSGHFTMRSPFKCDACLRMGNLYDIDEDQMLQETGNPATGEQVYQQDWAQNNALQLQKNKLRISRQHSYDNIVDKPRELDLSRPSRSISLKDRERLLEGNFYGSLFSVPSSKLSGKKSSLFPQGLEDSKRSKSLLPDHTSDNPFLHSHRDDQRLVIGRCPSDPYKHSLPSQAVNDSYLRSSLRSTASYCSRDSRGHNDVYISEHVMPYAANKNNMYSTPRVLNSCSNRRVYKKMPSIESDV
Protocol for CYP2D6: Those CYP isoforms and their corresponding probe substrates are as follows: CYP1A2 (phenacetin, 30 μM), CYP2C9 (tolutamide, 100 μM), CYP2C19 (S-mephenytoin, 40 μM), CYP2D6 (dextromethorphan, 5 μM) and CYP3A4 (midazolam, 1 μM). All probe substrates were used at concentrations near or below their Kms. For experiment, a reaction mixture of test compound at 10 μM or in serial dilution, CYP probe substrate described above and 0.2 mg/mL pooled HLM in phosphate buffer, pH 7.4 in a final volume of 200 μL was pre-incubated at 37° C. for 10 minutes in triplicate. The reaction was initiated by addition of NADPH at final concentration of 1 mM. The reaction was terminated after 10 minutes (CYP1A2, CYP2D6 and CYP3A4) or 30 minutes (CYP2C9 and CYP2C19) by addition of 100 μL ice-cold acetonitrile with internal standard (IS). The samples were then centrifuged at 13,000 rpm and the supernatants were injected to LC-MS/MS (Agilent Technologies) to quantify the concentration of the specific metabolites of the probe substrates formed by individual CYP450 isoforms. The inhibition ratio is calculated as: (Mt−M0)/Mwater×100% in which Mt and M0 represent the concentrations of the specific probe substrate metabolite, which was formed by individual CYP450 isoform, at the beginning and end of the reaction in the presence of test compound; while Mwater represents the concentration of the specific metabolite at the end of the reaction in the absence of test compound. Test compound concentration-dependent response data experiments performed in triplicate.
Protocol for cloned human NR1/NR2A: Activation of the NR2A or NR2B subtype of NMDA receptor with glutamate as an agonist and glycine co-agonist on these cells results in calcium influx, which can be monitored with fluorescent indicator Fluo-4.
For experiments, the cells were seeded onto poly-D-lysine-coated 96-well black plates with clear bottom (Corning) at a density of ^˜50,000 cells/well. After overnight culture, the growth medium was removed from the wells and the cells were incubated at 37° C. for 60 min in Hanks buffer containing 4 μM fluo-4-AM (Invitrogen) and 0.1% bovine serum albumin (BSA). After dye-loading, the cells were washed three times with Hanks buffer and incubated for 10 min at room temperature with various concentrations of test compounds prepared in Hanks buffer with 0.1% BSA. The cell plates were placed onto FDSS μCell fluorescence reader (Hamamatsu). After 20 sec reading of background fluorescence, agonist glutamate at final 100 μM and co-agonist glycine at final 50 μM were added to the cells to activate the receptor, and the resulting fluorescence changes were recorded and quantified. Based on the changes in fluorescence intensity, the pharmacological effect of test compounds were analyzed and the IC50 values derived from a non-linear least squares fitting of the concentration-dependent response to a standard logistic equation using Prism (Graphpad, Inc): Amplitude=Max Amplitude/(1+(IC50/[antagonist])^n).

Take `Cc1ccc(COC(=O)N2CC[C@H](CNc3nccn4cnnc34)C(F)(F)C2)cc1` [Compound E1-1.2, (+)-R-4-methylbenzyl 4-(([1,2,4]triazolo[4,3-a]pyrazin-8-ylamino)methyl)-3,3-difluoropiperidine-1-carboxylate]: on cloned human NR1/NR2A, the concentration for half-maximal inhibition (IC50) is more than 10 µM. In addition, the “partial effect on [3H] MK-801 binding” value in data set [1] was 40%. Also, the “CYP2D6 @ 10 μM (%)” value at CYP2D6 is 14%. In addition, in data set [2], the “latency to death, change vs vehicle controls” value was “+35%” and the “number of deaths, change vs vehicle controls” value is on record as −91%.
